Assay results taken from publication PMC7322046 (Heliyon, 2020).

What was measured:
[1] = tested on: human dipeptidyl peptidase IV (DPP4); conditions: dipeptides; cited from earlier work
Human recombinant DPP4 = Human recombinant DPP4 (Homo sapiens, UniProt P27487); test: DPP4 inhibition assay; type: biochemical; conditions: test tripeptide 10 μg/ml; 100 μM Gly-Pro-AMC, 37 °C, 30 min, pH 8.0
Sequence of Human recombinant DPP4 (P27487 whole entry): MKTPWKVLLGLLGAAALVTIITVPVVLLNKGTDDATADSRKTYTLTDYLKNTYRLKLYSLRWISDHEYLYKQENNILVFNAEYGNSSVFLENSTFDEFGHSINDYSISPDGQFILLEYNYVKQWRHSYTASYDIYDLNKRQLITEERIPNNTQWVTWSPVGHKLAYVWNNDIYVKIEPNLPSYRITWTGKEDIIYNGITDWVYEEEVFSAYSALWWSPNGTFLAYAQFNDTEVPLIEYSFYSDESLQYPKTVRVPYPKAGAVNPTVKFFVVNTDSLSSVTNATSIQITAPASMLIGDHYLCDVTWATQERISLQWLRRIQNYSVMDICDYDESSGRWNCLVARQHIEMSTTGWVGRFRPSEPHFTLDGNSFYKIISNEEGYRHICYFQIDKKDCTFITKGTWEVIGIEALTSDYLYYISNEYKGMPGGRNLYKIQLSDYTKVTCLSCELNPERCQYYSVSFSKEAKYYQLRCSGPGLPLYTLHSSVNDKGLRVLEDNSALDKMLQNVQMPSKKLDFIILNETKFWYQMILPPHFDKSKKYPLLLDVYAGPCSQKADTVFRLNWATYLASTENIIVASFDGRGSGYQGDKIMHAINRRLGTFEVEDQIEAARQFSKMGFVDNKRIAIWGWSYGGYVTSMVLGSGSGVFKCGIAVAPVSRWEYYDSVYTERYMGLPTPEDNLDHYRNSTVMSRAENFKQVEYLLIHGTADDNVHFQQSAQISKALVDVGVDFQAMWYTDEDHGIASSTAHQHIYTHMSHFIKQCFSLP

Row | inhibition ratio (Human recombinant DPP4) | Substance | DPP4 inhibitory activity (in words) [1]
1 | – | Ile-Pro | high inhibitory activity
2 | – | Val-Pro | high inhibitory activity
3 | 31.0% | Val-Pro-Leu [VPL] | –
